# Measured values: PubChem BioAssay (NCI)
#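 The concentration for 50% growth inhibition is given as GI50. TGI denotes the concentration required for complete inhibition of growth.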
# Columns and labels:
# Test in all cases: growth of human tumour cells (NCI), 384-well format
# PC-3 prostate = system: PC-3 prostate
# SR leukemia = system: SR leukemia
# HS 578T breast = system: HS 578T breast
# TK-10 renal = system: TK-10 renal
# RXF 393 renal = system: RXF 393 renal
# EKVX NSCLC = system: EKVX NSCLC
# SF-268 CNS = system: SF-268 CNS
# NCI-H460 NSCLC = system: NCI-H460 NSCLC
# SNB-19 CNS = system: SNB-19 CNS
# MDA-MB-435 melanoma = system: MDA-MB-435 melanoma
# SK-MEL-5 melanoma = system: SK-MEL-5 melanoma
# UACC-257 melanoma = system: UACC-257 melanoma
# HL-60(TB) leukemia = system: HL-60(TB) leukemia
# U251 glioblastoma = system: U251 glioblastoma
# CAKI-1 renal = system: CAKI-1 renal
# KM12 colon = system: KM12 colon
# HOP-62 NSCLC = system: HOP-62 NSCLC
# HCC-2998 colon = system: HCC-2998 colon
# OVCAR-4 ovarian = system: OVCAR-4 ovarian
# IGROV1 ovarian = system: IGROV1 ovarian
# A498 renal = system: A498 renal
# NCI-H522 lung = system: NCI-H522 lung
# COLO 205 colon = system: COLO 205 colon
# SN12C renal = system: SN12C renal
# HT29 colon = system: HT29 colon
# SF-539 CNS = system: SF-539 CNS
# NCI/ADR-RES ovarian = system: NCI/ADR-RES ovarian
# SNB-75 CNS = system: SNB-75 CNS
# MCF7 breast = system: MCF7 breast
# DU-145 prostate = system: DU-145 prostate
# T-47D breast = system: T-47D breast
# SF-295 CNS = system: SF-295 CNS
# NCI-H322M lung = system: NCI-H322M lung
# MDA-MB-231 breast = system: MDA-MB-231 breast
# HCT-116 colon = system: HCT-116 colon
# M14 melanoma = system: M14 melanoma
# A549 NSCLC = system: A549 NSCLC
# UACC-62 melanoma = system: UACC-62 melanoma
# MDA-MB-468 breast = system: MDA-MB-468 breast
# LOX IMVI melanoma = system: LOX IMVI melanoma
# HCT-15 colon = system: HCT-15 colon
# SK-OV-3 ovarian = system: SK-OV-3 ovarian
# ACHN renal = system: ACHN renal
# BT-549 breast = system: BT-549 breast
# HOP-92 NSCLC = system: HOP-92 NSCLC
# MOLT-4 leukemia = system: MOLT-4 leukemia
# OVCAR-5 ovarian = system: OVCAR-5 ovarian
# OVCAR-3 ovarian = system: OVCAR-3 ovarian
# OVCAR-8 ovarian = system: OVCAR-8 ovarian
# NCI-H226 lung = system: NCI-H226 lung
# MALME-3M melanoma = system: MALME-3M melanoma
# NCI-H23 lung = system: NCI-H23 lung
# SK-MEL-28 melanoma = system: SK-MEL-28 melanoma
compound,measurement,setting,value
O=C(NO)c1cnc(N2CCN(S(=O)(=O)c3ccc4ccccc4c3)CC2)nc1,GI50,PC-3 prostate,56.7 nM
same,TGI,PC-3 prostate,239 nM
same,GI50,SR leukemia,13.5 nM
same,TGI,SR leukemia,42.4 nM
same,GI50,HS 578T breast,86 nM
same,TGI,HS 578T breast,219 nM
same,GI50,TK-10 renal,64 nM
same,TGI,TK-10 renal,229 nM
same,GI50,RXF 393 renal,121 nM
same,TGI,RXF 393 renal,263 nM
same,GI50,EKVX NSCLC,200 nM
same,TGI,EKVX NSCLC,911 nM
same,GI50,SF-268 CNS,102 nM
same,TGI,SF-268 CNS,246 nM
same,GI50,NCI-H460 NSCLC,30.8 nM
same,TGI,NCI-H460 NSCLC,138 nM
same,GI50,SNB-19 CNS,154 nM
same,TGI,SNB-19 CNS,299 nM
same,GI50,MDA-MB-435 melanoma,125 nM
same,TGI,MDA-MB-435 melanoma,283 nM
same,GI50,SK-MEL-5 melanoma,29.8 nM
same,TGI,SK-MEL-5 melanoma,61.2 nM
same,GI50,UACC-257 melanoma,23.8 nM
same,TGI,UACC-257 melanoma,85.3 nM
same,GI50,HL-60(TB) leukemia,15 nM
same,TGI,HL-60(TB) leukemia,28.7 nM
same,GI50,U251 glioblastoma,50.4 nM
same,TGI,U251 glioblastoma,170 nM
same,GI50,CAKI-1 renal,94.7 nM
same,TGI,CAKI-1 renal,222 nM
same,GI50,KM12 colon,113 nM
same,TGI,KM12 colon,467 nM
same,GI50,HOP-62 NSCLC,69 nM
same,TGI,HOP-62 NSCLC,263 nM
same,GI50,HCC-2998 colon,52.5 nM
same,TGI,HCC-2998 colon,188 nM
same,GI50,OVCAR-4 ovarian,140 nM
same,TGI,OVCAR-4 ovarian,327 nM
same,GI50,IGROV1 ovarian,65.8 nM
same,TGI,IGROV1 ovarian,195 nM
same,GI50,A498 renal,69.7 nM
same,TGI,A498 renal,205 nM
same,GI50,NCI-H522 lung,40.7 nM
same,TGI,NCI-H522 lung,163 nM
same,GI50,COLO 205 colon,129 nM
same,TGI,COLO 205 colon,263 nM
same,GI50,SN12C renal,109 nM
same,TGI,SN12C renal,233 nM
same,GI50,HT29 colon,61.1 nM
same,TGI,HT29 colon,197 nM
same,GI50,SF-539 CNS,82.4 nM
same,TGI,SF-539 CNS,409 nM
same,GI50,NCI/ADR-RES ovarian,15.5 nM
same,TGI,NCI/ADR-RES ovarian,42.3 nM
same,GI50,SNB-75 CNS,166 nM
same,TGI,SNB-75 CNS,1260 nM
same,GI50,MCF7 breast,44.6 nM
same,TGI,MCF7 breast,205 nM
same,GI50,DU-145 prostate,29.4 nM
same,TGI,DU-145 prostate,95 nM
same,GI50,T-47D breast,38.9 nM
same,TGI,T-47D breast,168 nM
same,GI50,SF-295 CNS,119 nM
same,TGI,SF-295 CNS,249 nM
same,GI50,NCI-H322M lung,79.2 nM
same,TGI,NCI-H322M lung,261 nM
same,GI50,MDA-MB-231 breast,129 nM
same,TGI,MDA-MB-231 breast,343 nM
same,GI50,HCT-116 colon,32 nM
same,TGI,HCT-116 colon,120 nM
same,GI50,M14 melanoma,49.9 nM
same,TGI,M14 melanoma,171 nM
same,GI50,A549 NSCLC,69.2 nM
same,TGI,A549 NSCLC,229 nM
same,GI50,UACC-62 melanoma,41.7 nM
same,TGI,UACC-62 melanoma,154 nM
same,GI50,MDA-MB-468 breast,68.4 nM
same,TGI,MDA-MB-468 breast,384 nM
same,GI50,LOX IMVI melanoma,47.2 nM
same,TGI,LOX IMVI melanoma,157 nM
same,GI50,HCT-15 colon,98.2 nM
same,TGI,HCT-15 colon,272 nM
same,GI50,SK-OV-3 ovarian,85.4 nM
same,TGI,SK-OV-3 ovarian,237 nM
same,GI50,ACHN renal,139 nM
same,TGI,ACHN renal,294 nM
same,GI50,BT-549 breast,128 nM
same,TGI,BT-549 breast,319 nM
same,GI50,HOP-92 NSCLC,102 nM
same,TGI,HOP-92 NSCLC,310 nM
same,GI50,MOLT-4 leukemia,18.1 nM
same,TGI,MOLT-4 leukemia,32.4 nM
same,GI50,OVCAR-5 ovarian,37 nM
same,TGI,OVCAR-5 ovarian,137 nM
same,GI50,OVCAR-3 ovarian,89.6 nM
same,TGI,OVCAR-3 ovarian,216 nM
same,GI50,OVCAR-8 ovarian,19.2 nM
same,TGI,OVCAR-8 ovarian,140 nM
same,GI50,NCI-H226 lung,136 nM
same,TGI,NCI-H226 lung,288 nM
same,GI50,MALME-3M melanoma,25.8 nM
same,TGI,MALME-3M melanoma,124 nM
same,GI50,NCI-H23 lung,93.4 nM
same,TGI,NCI-H23 lung,334 nM
same,GI50,SK-MEL-28 melanoma,39.6 nM
same,TGI,SK-MEL-28 melanoma,146 nM
